Here are results for twelve molecules from patent publication US20260295053A1, “COMPOUNDS FOR DEGRADATION AND INHIBITION OF KRAS (G12D) PROTEIN” (Shenzhen Ionova Life Science Co., Ltd., priority 2023, published 2026).

Each structure is given as a SMILES string.

T1 sequence (P01116 1-188 isoform P01116-2 G12D): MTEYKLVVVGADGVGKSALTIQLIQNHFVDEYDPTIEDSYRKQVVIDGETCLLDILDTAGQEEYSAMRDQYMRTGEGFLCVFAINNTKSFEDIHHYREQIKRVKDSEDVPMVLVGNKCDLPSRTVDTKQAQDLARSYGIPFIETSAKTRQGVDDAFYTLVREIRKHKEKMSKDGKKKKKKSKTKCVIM

The assay has as its target T1, KRAS (G12D) (Homo sapiens, UniProt P01116, G12D).
T1 construct: in-cell western with KRAS G12D antibody after 24 h
The assay can be described thus: KRAS (G12D) cellular degradation assay in AsPC-1 cells. To be noted: 24 hours, antibody fluorescence (Odyssey CLX), DC50 half-maximal degradation concentration. The format is cell-based. Summed up:
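Half-maximal degradation (DC50) and inhibition (IC50) concentrations are fitted from dose-response curves spanning […] to 1.5 nM final. KRAS G12D loss is measured by fluorescent antibody staining with β-actin reference after 24 h; growth is measured by ATP luminescence after a 6-day exposure.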
What is called DC50 is the midpoint of the concentration-degradation curve. The low end stands for degradation at low concentration, the high end for degradation only at high concentration. Regarding `CO[C@@H](C)COc1nc(N2C[C@@H]3C[C@H]2CN3)c2cc(C3CC3)c(-c3c(C)c(F)cc4[nH]ncc34)c(OCc3ccc(-c4cn([C@H](C(=O)N5C[C@H](O)C[C@H]5C(=O)N[C@H](C#Cc5cncc6nn(C)cc56)CO)C(C)C)nn4)cc3)c2n1` [Example 185, (2S,4R)-1-((2S)-2-(4-(4-(((4-((1S,4S)-2,5-diazabicyclo[2.2.1]heptan-2-yl)-6-cyclopropyl-7-(6-fluoro-5-methyl-1H-indazol-4-yl)-2-((S)-2-methoxypropoxy)quinazolin-8-yl)oxy)methyl)phenyl)-1H-1,2,3-triazol-1l-yl)-3-methylbutanoyl)-4-hydroxy-N—((R)-1-hydroxy-4-(2-methyl-2H-pyrazolo[3,4-c]pyridin-4-yl)but-3-yn-2-yl)pyrrolidine-2-carboxamide], the half-maximal degradation concentration (DC50) was in the range of 10 to 100 nM. In turn, `CO[C@@H](C)COc1nc(N2C[C@@H]3C[C@H]2CN3)c2cc(C3CC3)c(-c3c(C)c(F)cc4[nH]ncc34)c(OCc3ccc(-c4cn([C@H](C(=O)N5C[C@H](O)C[C@H]5C(=O)N[C@H](C#Cc5ccnc6nn(C)cc56)CO)C(C)C)nn4)cc3)c2n1` [Example 191, (2S,4R)-1-((2S)-2-(4-(4-(((4-((1S,4S)-2,5-diazabicyclo[2.2.1]heptan-2-yl)-6-cyclopropyl-7-(6-fluoro-5-methyl-1H-indazol-4-yl)-2-((S)-2-methoxypropoxy)quinazolin-8-yl)oxy)methyl)phenyl)-1H-1,2,3-triazol-1-yl)-3-methylbutanoyl)-4-hydroxy-N—((R)-1-hydroxy-4-(2-methyl-2H-pyrazolo[3,4-b]pyridin-4-yl)but-3-yn-2-yl)pyrrolidine-2-carboxamide] returned a DC50 of 10 to 100 nM.

`CCn1nccc1-c1ccc([C@@H](NC(=O)[C@@H]2C[C@@H](O)CN2C(=O)[C@H](C(C)C)n2cc(-c3ccc(COc4c(-c5c(C)c(F)cc6[nH]ncc56)c(C5CC5)cc5c(N6C[C@@H]7C[C@H]6CN7)nc(O[C@H]6C[C@H](OC)C6)nc45)cc3)nn2)[C@H](C)O)nc1` [Example 200, (2S,4R)-1-((2S)-2-(4-(4-(((4-((1S,4S)-2,5-diazabicyclo[2.2.1]heptan-2-yl)-6-cyclopropyl-7-(6-fluoro-5-methyl-1H-indazol-4-yl)-2-((1r,3S)-3-methoxycyclobutoxy)quinazolin-8-yl)oxy)methyl)phenyl)-1H-1,2,3-triazol-1-yl)-3-methylbutanoyl)-N-((1R,2S)-1-(5-(1-ethyl-1H-pyrazol-5-yl)pyridin-2-yl)-2-hydroxypropyl)-4-hydroxypyrrolidine-2-carboxamide] registered a DC50 of less than 10 nM. `CCn1nccc1-c1ccc([C@@H](NC(=O)[C@@H]2C[C@@H](O)CN2C(=O)[C@H](C(C)C)n2cc(-c3ccc(COc4c(-c5c(C)c(F)cc6[nH]ncc56)c(C5CC5)cc5c(N(C)[C@H]6CCNC6)nc(OC[C@H]6CCCO6)nc45)cc3)nn2)[C@H](C)O)c2c1CC2` [Example 209, (2S,4R)-1-((2S)-2-(4-(4-(((6-cyclopropyl-7-(6-fluoro-5-methyl-1H-indazol-4-yl)-4-(methyl((S)-pyrrolidin-3-yl)amino)-2-(((R)-tetrahydrofuran-2-yl)methoxy)quinazolin-8-yl)oxy)methyl)phenyl)-1H-1,2,3-triazol-1-yl)-3-methylbutanoyl)-N-((1R,2S)-1-(5-(1-ethyl-1H-pyrazol-5-yl)bicyclo[4.2.0]octa-1(6),2,4-trien-2-yl)-2-hydroxypropyl)-4-hydroxypyrrolidine-2-carboxamide] had a DC50 of less than 10 nM. With `CCn1nccc1-c1ccc([C@@H](NC(=O)[C@@H]2C[C@@H](O)CN2C(=O)[C@H](C(C)C)n2cc(-c3ccc(COc4c(-c5c(C)c(F)cc6[nH]ncc56)c(C5CC5)cc5c(N(C)[C@H]6CCNC6)nc(OC[C@@H]6CCCO6)nc45)cc3)nn2)[C@H](C)O)c2c1CC2` [Example 210, (2S,4R)-1-((2S)-2-(4-(4-(((6-cyclopropyl-7-(6-fluoro-5-methyl-1H-indazol-4-yl)-4-(methyl((S)-pyrrolidin-3-yl)amino)-2-(((S)-tetrahydrofuran-2-yl)methoxy)quinazolin-8-yl)oxy)methyl)phenyl)-1H-1,2,3-triazol-1-yl)-3-methylbutanoyl)-N-((1R,2S)-1-(5-(1-ethyl-1H-pyrazol-5-yl)bicyclo[4.2.0]octa-1(6),2,4-trien-2-yl)-2-hydroxypropyl)-4-hydroxypyrrolidine-2-carboxamide] the figure was less than 10 nM; with `CCn1nccc1-c1ccc([C@@H](NC(=O)[C@@H]2C[C@@H](O)CN2C(=O)[C@H](C(C)C)n2cc(-c3ccc(COc4c(-c5c(C)c(F)cc6[nH]ncc56)c(C5CC5)cc5c(N(C)[C@@H]6CCNC6)nc(O[C@H]6C[C@H](OC)C6)nc45)cc3)nn2)[C@H](C)O)c2c1CC2` [Example 211, (2S,4R)-1-((2S)-2-(4-(4-(((6-cyclopropyl-7-(6-fluoro-5-methyl-1H-indazol-4-yl)-2-((1r,3R)-3-methoxycyclobutoxy)-4-(methyl((R)-pyrrolidin-3-yl)amino)quinazolin-8-yl)oxy)methyl)phenyl)-1H-1,2,3-triazol-1-yl)-3-methylbutanoyl)-N-((1R,2S)-1-(5-(1-ethyl-1H-pyrazol-5-yl)bicyclo[4.2.0]octa-1(6),2,4-trien-2-yl)-2-hydroxypropyl)-4-hydroxypyrrolidine-2-carboxamide], less than 10 nM.

Take `CO[C@@H]1CC[C@@H](Oc2nc(N3C[C@@H]4C[C@H]3CN4)c3cc(C4CC4)c(-c4c(C)c(F)cc5[nH]ncc45)c(OCc4ccc(-c5cn([C@H](C(=O)N6C[C@H](O)C[C@H]6C(=O)N[C@H](c6ccc(-c7scnc7C)cc6)[C@H](C)O)C(C)C)nn5)cc4)c3n2)C1` [Example 212]: the DC50 was less than 10 nM. With `Cc1ncsc1-c1ccc([C@H](CO)NC(=O)[C@@H]2C[C@@H](O)CN2C(=O)[C@H](C(C)C)n2cc(-c3ccc(COc4c(-c5c(C)c(F)cc6[nH]ncc56)c(C5CC5)cc5c(N6CCCNCC6)nc(OC[C@H]6CCCO6)nc45)cc3)nn2)cc1` [Example 213, (2S,4R)-1-((2S)-2-(4-(4-(((6-cyclopropyl-4-(1,4-diazepan-1-yl)-7-(6-fluoro-5-methyl-1H-indazol-4-yl)-2-(((R)-tetrahydrofuran-2-yl)methoxy)quinazolin-8-yl)oxy)methyl)phenyl)-1H-1,2,3-triazol-1-yl)-3-methylbutanoyl)-4-hydroxy-N—((R)-2-hydroxy-1-(4-(4-methylthiazol-5-yl)phenyl)ethyl)pyrrolidine-2-carboxamide] the figure was less than 10 nM; with `CCn1nccc1-c1ccc([C@H](CO)NC(=O)[C@@H]2C[C@@H](O)CN2C(=O)[C@H](C(C)C)n2cc(-c3ccc(COc4c(-c5c(C)c(F)cc6[nH]ncc56)c(C5CC5)cc5c(N6CCCNCC6)nc(OC[C@H]6CCCO6)nc45)cc3)nn2)cc1` [Example 214, (2S,4R)-1-((2S)-2-(4-(4-(((6-cyclopropyl-4-(1,4-diazepan-1-yl)-7-(6-fluoro-5-methyl-1H-indazol-4-yl)-2-(((R)-tetrahydrofuran-2-yl)methoxy)quinazolin-8-yl)oxy)methyl)phenyl)-1H-1,2,3-triazol-1-yl)-3-methylbutanoyl)-N—((R)-1-(4-(1-ethyl-1H-pyrazol-5-yl)phenyl)-2-hydroxyethyl)-4-hydroxypyrrolidine-2-carboxamide], less than 10 nM. The molecule `CO[C@H]1CC[C@H](Oc2nc(N3C[C@@H]4C[C@H]3CN4)c3cc(C4CC4)c(-c4c(C)c(F)cc5[nH]ncc45)c(OCc4ccc(-c5cn([C@H](C(=O)N6C[C@H](O)C[C@H]6C(=O)N[C@H](c6ccc(-c7scnc7C)cc6)[C@H](C)O)C(C)C)nn5)cc4)c3n2)C1` [Example 215, (2S,4R)-1-((2S)-2-(4-(4-(((4-((1S,4S)-2,5-diazabicyclo[2.2.1]heptan-2-yl)-6-cyclopropyl-7-(6-fluoro-5-methyl-1H-indazol-4-yl)-2-(((1S,3S)-3-methoxycyclopentyl)oxy)quinazolin-8-yl)oxy)methyl)phenyl)-1H-1,2,3-triazol-1-yl)-3-methylbutanoyl)-4-hydroxy-N-((1R,2S)-2-hydroxy-1-(4-(4-methylthiazol-5-yl)phenyl)propyl)pyrrolidine-2-carboxamide] showed a half-maximal degradation concentration (DC50) of less than 10 nM.

`CCn1nccc1-c1ccc([C@H](CO)NC(=O)[C@@H]2C[C@@H](O)CN2C(=O)[C@H](C(C)C)n2cc(-c3ccc(COc4c(-c5c(C)c(F)cc6[nH]ncc56)c(C5CC5)cc5c(N(C)C[C@@H]6CCNC6)nc(OC[C@H](C)OC)nc45)cc3)nn2)cc1` [Example 216, (2S,4R)-1-((2S)-2-(4-(4-(((6-cyclopropyl-7-(6-fluoro-5-methyl-1H-indazol-4-yl)-2-((S)-2-methoxypropoxy)-4-(methyl(((R)-pyrrolidin-3-yl)methyl)amino)quinazolin-8-yl)oxy)methyl)phenyl)-1H-1,2,3-triazol-1-yl)-3-methylbutanoyl)-N—((R)-1-(4-(1-ethyl-1H-pyrazol-5-yl)phenyl)-2-hydroxyethyl)-4-hydroxypyrrolidine-2-carboxamide] came in with a half-maximal degradation concentration (DC50) of less than 10 nM.

Molecule `CCn1nccc1-c1ccc([C@H](CO)NC(=O)[C@@H]2C[C@@H](O)CN2C(=O)[C@H](C(C)C)n2cc(-c3ccc(COc4c(-c5c(C)c(F)cc6[nH]ncc56)c(C5CC5)cc5c(N6CCC(O)CC6)nc(OC[C@H](C)OC)nc45)cc3)nn2)cc1` [Example 217, (2S,4R)-1-((2S)-2-(4-(4-(((6-cyclopropyl-7-(6-fluoro-5-methyl-1H-indazol-4-yl)-4-(4-hydroxypiperidin-1-yl)-2-((S)-2-methoxypropoxy)quinazolin-8-yl)oxy)methyl)phenyl)-1H-1,2,3-triazol-1-yl)-3-methylbutanoyl)-N—((R)-1-(4-(1-ethyl-1H-pyrazol-5-yl)phenyl)-2-hydroxyethyl)-4-hydroxypyrrolidine-2-carboxamide] displayed a DC50 of less than 10 nM.
